# Reference: PubChem BioAssay (NCI)
#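 All cell lines were grown in 96-well plates and treated with compound for 48 hours. Definition used: TGI = concentration required for complete inhibition of growth.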
# Key:
# Assay in all cases: NCI-60 cell line screen, 48 h
# NCI-H460 lung = tested on: NCI-H460 lung
# OVCAR-3 ovarian = tested on: OVCAR-3 ovarian
# SK-MEL-2 melanoma = tested on: SK-MEL-2 melanoma
# UACC-257 melanoma = tested on: UACC-257 melanoma
# ACHN renal = tested on: ACHN renal
# MOLT-4 leukemia = tested on: MOLT-4 leukemia
# SK-MEL-5 melanoma = tested on: SK-MEL-5 melanoma
# SNB-75 CNS = tested on: SNB-75 CNS
# U251 CNS = tested on: U251 CNS
# UACC-62 melanoma = tested on: UACC-62 melanoma
# DLD-1 colon = tested on: DLD-1 colon
# A549 NSCLC = tested on: A549 NSCLC
# HT29 colon = tested on: HT29 colon
# RPMI-8226 leukemia = tested on: RPMI-8226 leukemia
# NCI-H522 lung = tested on: NCI-H522 lung
# OVCAR-5 ovarian = tested on: OVCAR-5 ovarian
# CAKI-1 renal = tested on: CAKI-1 renal
# CCRF-CEM leukemia = tested on: CCRF-CEM leukemia
# 786-0 renal = tested on: 786-0 renal
# COLO 205 colon = tested on: COLO 205 colon
# OVCAR-8 ovarian = tested on: OVCAR-8 ovarian
# EKVX NSCLC = tested on: EKVX NSCLC
# M19-MEL melanoma = tested on: M19-MEL melanoma
# HCT-15 colon = tested on: HCT-15 colon
# K-562 leukemia = tested on: K-562 leukemia
# SF-539 CNS = tested on: SF-539 CNS
# NCI-H226 lung = tested on: NCI-H226 lung
# SK-OV-3 ovarian = tested on: SK-OV-3 ovarian
# DMS 114 small cell lung = tested on: DMS 114 small cell lung
# MALME-3M melanoma = tested on: MALME-3M melanoma
# SF-295 CNS = tested on: SF-295 CNS
# TK-10 renal = tested on: TK-10 renal
# A498 renal = tested on: A498 renal
# HOP-92 NSCLC = tested on: HOP-92 NSCLC
# LOX IMVI melanoma = tested on: LOX IMVI melanoma
# NCI-H23 lung = tested on: NCI-H23 lung
# SN12C renal = tested on: SN12C renal
# IGROV1 ovarian = tested on: IGROV1 ovarian
# HOP-18 NSCLC = tested on: HOP-18 NSCLC
# KM20L2 colon = tested on: KM20L2 colon
# UO-31 renal = tested on: UO-31 renal
# DMS 273 small cell lung = tested on: DMS 273 small cell lung
# SK-MEL-28 melanoma = tested on: SK-MEL-28 melanoma
# SW-620 colon = tested on: SW-620 colon
# SNB-78 CNS = tested on: SNB-78 CNS
# HOP-62 NSCLC = tested on: HOP-62 NSCLC
# SNB-19 CNS = tested on: SNB-19 CNS
# HL-60(TB) leukemia = tested on: HL-60(TB) leukemia
# RXF 393 renal = tested on: RXF 393 renal
# KM12 colon = tested on: KM12 colon
# SF-268 CNS = tested on: SF-268 CNS
# HCC-2998 colon = tested on: HCC-2998 colon
# OVCAR-4 ovarian = tested on: OVCAR-4 ovarian
# LXFL 529 NSCLC = tested on: LXFL 529 NSCLC
# XF 498 CNS = tested on: XF 498 CNS
# M14 melanoma = tested on: M14 melanoma
# HCT-116 colon = tested on: HCT-116 colon
# SR leukemia = tested on: SR leukemia
compound,measurement,setting,value
c1ccc2c(OCCSCCCCCCCCCCSCCOc3cccc4ccccc34)cccc2c1,TGI,NCI-H460 lung,> 100 µM
same,TGI,OVCAR-3 ovarian,> 100 µM
same,TGI,SK-MEL-2 melanoma,> 100 µM
same,TGI,UACC-257 melanoma,> 100 µM
same,TGI,ACHN renal,> 100 µM
same,TGI,MOLT-4 leukemia,> 100 µM
same,TGI,SK-MEL-5 melanoma,> 100 µM
same,TGI,SNB-75 CNS,> 100 µM
same,TGI,U251 CNS,> 100 µM
same,TGI,UACC-62 melanoma,> 100 µM
same,TGI,DLD-1 colon,> 100 µM
same,TGI,A549 NSCLC,> 100 µM
same,TGI,HT29 colon,> 100 µM
same,TGI,RPMI-8226 leukemia,> 100 µM
same,TGI,NCI-H522 lung,> 100 µM
same,TGI,OVCAR-5 ovarian,> 100 µM
same,TGI,CAKI-1 renal,> 100 µM
same,TGI,CCRF-CEM leukemia,> 100 µM
same,TGI,786-0 renal,> 100 µM
same,TGI,COLO 205 colon,> 100 µM
same,TGI,OVCAR-8 ovarian,> 100 µM
same,TGI,EKVX NSCLC,> 100 µM
same,TGI,M19-MEL melanoma,> 100 µM
same,TGI,HCT-15 colon,> 100 µM
same,TGI,K-562 leukemia,> 100 µM
same,TGI,SF-539 CNS,> 100 µM
same,TGI,NCI-H226 lung,> 100 µM
same,TGI,SK-OV-3 ovarian,> 100 µM
same,TGI,DMS 114 small cell lung,> 100 µM
same,TGI,MALME-3M melanoma,> 100 µM
same,TGI,SF-295 CNS,> 100 µM
same,TGI,TK-10 renal,> 100 µM
same,TGI,A498 renal,> 100 µM
same,TGI,HOP-92 NSCLC,> 100 µM
same,TGI,LOX IMVI melanoma,> 100 µM
same,TGI,NCI-H23 lung,> 100 µM
same,TGI,SN12C renal,> 100 µM
same,TGI,IGROV1 ovarian,> 100 µM
same,TGI,HOP-18 NSCLC,> 100 µM
same,TGI,KM20L2 colon,> 100 µM
same,TGI,UO-31 renal,> 100 µM
same,TGI,DMS 273 small cell lung,> 100 µM
same,TGI,SK-MEL-28 melanoma,> 100 µM
same,TGI,SW-620 colon,> 100 µM
same,TGI,SNB-78 CNS,> 100 µM
same,TGI,HOP-62 NSCLC,> 100 µM
same,TGI,SNB-19 CNS,> 100 µM
same,TGI,HL-60(TB) leukemia,> 100 µM
same,TGI,RXF 393 renal,> 100 µM
same,TGI,KM12 colon,> 100 µM
same,TGI,SF-268 CNS,> 100 µM
same,TGI,HCC-2998 colon,> 100 µM
CC1=Cc2cccc(C)c2C(=O)C1=O,TGI,NCI-H460 lung,41.9 µM
same,TGI,OVCAR-3 ovarian,6.78 µM
same,TGI,SK-MEL-2 melanoma,31.9 µM
same,TGI,UACC-257 melanoma,4.72 µM
same,TGI,SK-MEL-5 melanoma,10.7 µM
same,TGI,SNB-75 CNS,29.9 µM
same,TGI,U251 CNS,41 µM
same,TGI,UACC-62 melanoma,10.7 µM
same,TGI,DLD-1 colon,4.32 µM
same,TGI,A549 NSCLC,25.1 µM
same,TGI,HT29 colon,32.3 µM
same,TGI,RPMI-8226 leukemia,4.36 µM
same,TGI,NCI-H522 lung,9.87 µM
same,TGI,OVCAR-5 ovarian,34.2 µM
same,TGI,OVCAR-4 ovarian,10.1 µM
same,TGI,CAKI-1 renal,32.5 µM
same,TGI,786-0 renal,6.96 µM
same,TGI,COLO 205 colon,3.49 µM
same,TGI,OVCAR-8 ovarian,41.7 µM
same,TGI,EKVX NSCLC,24.5 µM
same,TGI,M19-MEL melanoma,23.6 µM
same,TGI,HCT-15 colon,16.4 µM
same,TGI,SF-539 CNS,15.5 µM
same,TGI,NCI-H226 lung,30.5 µM
same,TGI,SK-OV-3 ovarian,36.8 µM
same,TGI,MALME-3M melanoma,3.26 µM
same,TGI,SF-295 CNS,11.1 µM
same,TGI,TK-10 renal,4.75 µM
same,TGI,A498 renal,30.9 µM
same,TGI,HOP-92 NSCLC,2.92 µM
same,TGI,LOX IMVI melanoma,21.5 µM
same,TGI,NCI-H23 lung,32.8 µM
same,TGI,SN12C renal,37.2 µM
same,TGI,IGROV1 ovarian,29.2 µM
same,TGI,HOP-18 NSCLC,2.79 µM
same,TGI,KM20L2 colon,35.5 µM
same,TGI,UO-31 renal,27.1 µM
same,TGI,DMS 273 small cell lung,38.2 µM
same,TGI,SK-MEL-28 melanoma,31.5 µM
same,TGI,SW-620 colon,10.3 µM
same,TGI,LXFL 529 NSCLC,5.27 µM
same,TGI,SNB-78 CNS,> 100 µM
same,TGI,XF 498 CNS,9.65 µM
same,TGI,M14 melanoma,9.54 µM
same,TGI,HOP-62 NSCLC,30.2 µM
same,TGI,HCT-116 colon,6.88 µM
same,TGI,SNB-19 CNS,45.3 µM
same,TGI,HL-60(TB) leukemia,1.37 µM
same,TGI,RXF 393 renal,8.85 µM
same,TGI,KM12 colon,19.7 µM
same,TGI,SF-268 CNS,25.9 µM
same,TGI,HCC-2998 colon,27.8 µM
C=CCCCCC1CCC2CCC(CCCCC=C)N12 (stereo unspecified),TGI,NCI-H460 lung,26.2 µM
same,TGI,OVCAR-3 ovarian,30.2 µM
same,TGI,SK-MEL-2 melanoma,22.9 µM
same,TGI,UACC-257 melanoma,29.3 µM
same,TGI,ACHN renal,28.5 µM
same,TGI,SR leukemia,33.4 µM
same,TGI,MOLT-4 leukemia,36.3 µM
same,TGI,SK-MEL-5 melanoma,26.9 µM
same,TGI,SNB-75 CNS,43.1 µM
same,TGI,U251 CNS,34.6 µM
same,TGI,UACC-62 melanoma,30.6 µM
same,TGI,A549 NSCLC,30 µM
same,TGI,HT29 colon,25.5 µM
same,TGI,RPMI-8226 leukemia,41 µM
same,TGI,NCI-H522 lung,28.3 µM
same,TGI,OVCAR-4 ovarian,26.3 µM
same,TGI,CAKI-1 renal,84.8 µM
same,TGI,CCRF-CEM leukemia,37.7 µM
same,TGI,786-0 renal,26.9 µM
same,TGI,COLO 205 colon,32.5 µM
same,TGI,OVCAR-8 ovarian,33.1 µM
same,TGI,M19-MEL melanoma,37.3 µM
same,TGI,HCT-15 colon,19.4 µM
same,TGI,K-562 leukemia,42.1 µM
same,TGI,SF-539 CNS,30.6 µM
same,TGI,NCI-H226 lung,34.1 µM
same,TGI,DMS 114 small cell lung,31.3 µM
same,TGI,MALME-3M melanoma,31.8 µM
same,TGI,SF-295 CNS,26.4 µM
same,TGI,TK-10 renal,34.8 µM
same,TGI,HOP-92 NSCLC,22.8 µM
same,TGI,SN12C renal,29.9 µM
same,TGI,HOP-18 NSCLC,60.9 µM
same,TGI,KM20L2 colon,25.7 µM
same,TGI,UO-31 renal,27.4 µM
same,TGI,DMS 273 small cell lung,37.5 µM
same,TGI,SK-MEL-28 melanoma,32.2 µM
same,TGI,SW-620 colon,32.9 µM
same,TGI,LXFL 529 NSCLC,26.9 µM
same,TGI,M14 melanoma,31.3 µM
same,TGI,HOP-62 NSCLC,33 µM
same,TGI,HCT-116 colon,30.2 µM
same,TGI,SNB-19 CNS,35.3 µM
same,TGI,HL-60(TB) leukemia,36.5 µM
same,TGI,KM12 colon,29.6 µM
same,TGI,SF-268 CNS,29.8 µM
same,TGI,HCC-2998 colon,30 µM
Nc1c(C(=O)N/N=C/c2ccccc2)sc(=S)n1-c1ccccc1,TGI,NCI-H460 lung,> 100 µM
same,TGI,OVCAR-3 ovarian,> 100 µM
same,TGI,UACC-257 melanoma,> 100 µM
same,TGI,ACHN renal,> 100 µM
same,TGI,SR leukemia,> 100 µM
same,TGI,MOLT-4 leukemia,> 100 µM
same,TGI,SK-MEL-5 melanoma,> 100 µM
same,TGI,SNB-75 CNS,> 100 µM
same,TGI,U251 CNS,> 100 µM
same,TGI,UACC-62 melanoma,> 100 µM
same,TGI,DLD-1 colon,> 100 µM
same,TGI,A549 NSCLC,> 100 µM
same,TGI,HT29 colon,> 100 µM
same,TGI,RPMI-8226 leukemia,> 100 µM
same,TGI,NCI-H522 lung,> 100 µM
same,TGI,CCRF-CEM leukemia,> 100 µM
same,TGI,COLO 205 colon,> 100 µM
same,TGI,OVCAR-8 ovarian,> 100 µM
same,TGI,M19-MEL melanoma,> 100 µM
same,TGI,K-562 leukemia,> 100 µM
same,TGI,SF-539 CNS,> 100 µM
same,TGI,NCI-H226 lung,> 100 µM
same,TGI,SK-OV-3 ovarian,> 100 µM
same,TGI,SF-295 CNS,> 100 µM
same,TGI,TK-10 renal,> 100 µM
same,TGI,HOP-92 NSCLC,> 100 µM
same,TGI,NCI-H23 lung,> 100 µM
same,TGI,IGROV1 ovarian,> 100 µM
same,TGI,HOP-18 NSCLC,> 100 µM
same,TGI,UO-31 renal,> 100 µM
same,TGI,SK-MEL-28 melanoma,> 100 µM
same,TGI,SW-620 colon,> 100 µM
same,TGI,LXFL 529 NSCLC,> 100 µM
same,TGI,HOP-62 NSCLC,> 100 µM
same,TGI,HCT-116 colon,> 100 µM
same,TGI,SNB-19 CNS,> 100 µM
same,TGI,HL-60(TB) leukemia,> 100 µM
same,TGI,KM12 colon,> 100 µM
same,TGI,SF-268 CNS,> 100 µM
same,TGI,HCC-2998 colon,> 100 µM
